Values after ≈ are worked out from the molar mass of the structure shown. Active and inactive are the calls of the source. The rule behind the calls is not given here.
Tests used:
Streptococcus mutans [1] = test: Antibacterial activity against Streptococcus mutans ATCC 25175 measured after overnight incubation by two-fold serial dilution method; assay type: functional
Staphylococcus aureus [2] = test: Antibacterial activity against methicillin-resistant Staphylococcus aureus ATCC 43300 assessed as time delay in bacterial growth at MIC after 10 mins; assay type: functional
Staphylococcus aureus [3] = test: Antibacterial activity against methicillin-resistant Staphylococcus aureus ATCC 43300 assessed as delay in bacterial growth at 4 times MIC after 10 mins; assay type: functional, organism-based
Staphylococcus aureus [4] = test: Antibacterial activity against methicillin-resistant Staphylococcus aureus ATCC 43300 assessed as reduction in acid production at 0.5 times MIC and MIC measured up to 24 hrs; assay type: functional, organism-based
Staphylococcus aureus [5] = test: Antibacterial activity against methicillin-resistant Staphylococcus aureus ATCC 43300 assessed as time delay in bacterial growth at 2 times MIC after 10 mins; assay type: functional
Streptococcus mutans [6] = test: Potency index, ratio of cefixime MIC to test compound MIC for Streptococcus mutans ATCC 25175; assay type: functional
Staphylococcus aureus [7] = test: Bactericidal activity against methicillin-resistant Staphylococcus aureus ATCC 43300 measured after overnight incubation; assay type: functional
Staphylococcus aureus [8] = test: Antibacterial activity against methicillin-resistant Staphylococcus aureus ATCC 43300 measured after overnight incubation by two-fold serial dilution method; assay type: functional
Streptococcus mutans [9] = test: Antibiofilm activity against Streptococcus mutans ATCC 25175 assessed as down-regulation of gtfC gene expression by semi-quantitative PCR analysis; assay type: functional, organism-based
Streptococcus mutans [10] = test: Antibacterial activity against Streptococcus mutans ATCC 25175 measured assessed as reduction in bacterial viability at 5 to 15 ug/ml after 24 hrs by MTT assay; assay type: functional
Streptococcus mutans [11] = test: Potency index, ratio of 6 amino penicillinic acid MIC to test compound MIC for Streptococcus mutans ATCC 25175; assay type: functional
Staphylococcus aureus [12] = test: Potency index, ratio of gentamycin sulphate MIC to test compound MIC for methicillin-resistant Staphylococcus aureus ATCC 43300; assay type: functional
Staphylococcus aureus [13] = test: Antibacterial activity against methicillin-resistant Staphylococcus aureus ATCC 43300 assessed as log reduction in bacterial count at 5 ug/ml measured after 24 hrs; assay type: functional
Streptococcus mutans [14] = test: Bacteriostatic activity against Streptococcus mutans ATCC 25175 assessed as log reduction in colony forming units at 7.5 to 10 ug/ml after 24 hrs; assay type: functional, organism-based
Staphylococcus aureus [15] = test: Antibiofilm activity against methicillin-resistant Staphylococcus aureus ATCC 43300 measured after overnight incubation by crystal violet-staining based assay; assay type: functional
Streptococcus mutans [16] = test: Antibacterial activity against Streptococcus mutans ATCC 25175 assessed as reduction in acid production at 0.5 times MIC and MIC measured up to 24 hrs; assay type: functional, organism-based
Staphylococcus aureus [17] = test: Potency index, ratio of cefixime MIC to test compound MIC for methicillin-resistant Staphylococcus aureus ATCC 43300; assay type: functional
Staphylococcus aureus [18] = test: Antibiofilm activity against methicillin-resistant Staphylococcus aureus ATCC 43300 assessed as formation of broken chains at MBIC concentration by uranyl acetate-staining based electron microscopy; assay type: functional, organism-based
Streptococcus mutans [19] = test: Antibacterial activity against Streptococcus mutans ATCC 25175 assessed as log reduction in bacterial count at 10 ug/ml measured after 24 hrs relative to control; assay type: functional
Staphylococcus aureus [20] = test: Antibacterial activity against methicillin-resistant Staphylococcus aureus ATCC 43300 assessed as inhibition of colony formation at 5 to 20 ug/ml measured after 24 hrs; assay type: functional, organism-based
Streptococcus mutans [21] = test: Antibiofilm activity against Streptococcus mutans ATCC 25175 measured after overnight incubation by crystal violet-staining based assay; assay type: functional
Staphylococcus aureus [22] = test: Antibiofilm activity against methicillin-resistant Staphylococcus aureus ATCC 43300 assessed as formation of oviod cells at MBIC concentration by uranyl acetate-staining based electron microscopy; assay type: functional, organism-based
Staphylococcus aureus [23] = test: Potency index, ratio of 6 amino penicillinic acid MIC to test compound MIC for methicillin-resistant Staphylococcus aureus ATCC 43300; assay type: functional
Streptococcus mutans [24] = test: Bactericidal activity against Streptococcus mutans ATCC 25175 measured after overnight incubation; assay type: functional
Staphylococcus aureus [25] = test: Antibacterial activity against methicillin-resistant Staphylococcus aureus ATCC 43300 assessed as reduction in bacterial viability at 5 to 20 ug/ml measured after 24 hrs by MTT assay; assay type: functional
Streptococcus mutans [26] = test: Antibacterial activity against Streptococcus mutans ATCC 25175 assessed as time delay in bacterial growth at MIC, 2 times MIC and 4 times MIC; assay type: functional
Streptococcus mutans [27] = test: Antibiofilm activity against Streptococcus mutans ATCC 25175 assessed as down-regulation of gtfB gene expression by semi-quantitative PCR analysis; assay type: functional, organism-based
Klebsiella pneumoniae [28] = test: Antibacterial activity against Klebsiella pneumoniae ATCC 13882 measured after overnight incubation by two-fold serial dilution method; assay type: functional
Staphylococcus aureus [29] = test: Bacteriostatic activity against methicillin-resistant Staphylococcus aureus ATCC 43300 assessed as log reduction in colony forming units at 12.5 to 15 ug/ml after 24 hrs; assay type: functional, organism-based
Staphylococcus aureus [30] = test: Antibiofilm activity against methicillin-resistant Staphylococcus aureus ATCC 43300 assessed as disruption of biofilm at 10 to 12 ug/ml by fluorescence microscopy; assay type: functional, organism-based
Staphylococcus aureus [31] = test: Antibiofilm activity against methicillin-resistant Staphylococcus aureus ATCC 43300 assessed as down-regulation of IcaA gene expression by semi-quantitative PCR analysis; assay type: functional, organism-based
Streptococcus mutans [32] = test: Antibiofilm activity against Streptococcus mutans ATCC 25175 assessed as disruption of biofilm at 10 to 12 ug/ml by fluorescence microscopy; assay type: functional, organism-based
Streptococcus mutans [33] = test: Antibacterial activity against Streptococcus mutans ATCC 25175 measured assessed as inhibition of colony formation at 5 to 15 ug/ml after 24 hrs; assay type: functional, organism-based
Streptococcus mutans [34] = test: Antibiofilm activity against Streptococcus mutans ATCC 25175 assessed as down-regulation of luxS gene expression by semi-quantitative PCR analysis; assay type: functional, organism-based
Proteus mirabilis [35] = test: Antibacterial activity against Proteus mirabilis ATCC 12453 measured after overnight incubation by two-fold serial dilution method; assay type: functional
Klebsiella pneumoniae [36] = test: Antibiofilm activity against Klebsiella pneumoniae ATCC 13882 at >= 50 ug/ml measured after overnight incubation by crystal violet-staining based assay; assay type: functional, organism-based
Proteus mirabilis [37] = test: Antibiofilm activity against Proteus mirabilis ATCC 12453 measured after overnight incubation by crystal violet-staining based assay; assay type: functional
Proteus mirabilis [38] = test: Antibiofilm activity against Proteus mirabilis ATCC 12453 at >= 50 ug/ml measured after overnight incubation by crystal violet-staining based assay; assay type: functional, organism-based
Klebsiella pneumoniae [39] = test: Antibiofilm activity against Klebsiella pneumoniae ATCC 13882 measured after overnight incubation by crystal violet-staining based assay; assay type: functional

In the case of `CC1=CCC[C@@H]2[C@@](C)(CCC3=CC(=O)OC3Nc3ccccc3)[C@H](C)CC[C@@]12C` (mixture of isomers), the MIC (Streptococcus mutans [1]) is reported as 15 µg/mL, the Time (Staphylococcus aureus [2]) is reported as 1 to 2 h and the Activity (Staphylococcus aureus [3]) is reported as “Active”. The Activity (Staphylococcus aureus [4]) was “Active”, the Time (Staphylococcus aureus [5]) was 1 to 2 h and the Ratio (Streptococcus mutans [6]) was 5. The MBC (Staphylococcus aureus [7]) was “inactive”, the MIC (Staphylococcus aureus [8]) was 10 µg/mL and the Activity (Streptococcus mutans [9]) was “Active”. For the same compound, the Activity (Streptococcus mutans [10]) was “<=90%”, the Ratio (Streptococcus mutans [11]) was 5 and the Ratio (Staphylococcus aureus [12]) was 5. For the same compound, the Activity (Staphylococcus aureus [13]) was 9.5 log10CFU/ml, the Activity (Streptococcus mutans [14]) was “Active” and the Activity (Staphylococcus aureus [15]) was 96.9%. The MBIC (Staphylococcus aureus [15]) was 10 µg/mL, the Activity (Streptococcus mutans [16]) was “Active” and the Ratio (Staphylococcus aureus [17]) was 5. The Activity (Staphylococcus aureus [18]) was “Active”, the Activity (Streptococcus mutans [19]) was 7.5 - 8 log10CFU/ml and the Activity (Staphylococcus aureus [20]) was “Active”. For the same compound, the Activity (Streptococcus mutans [21]) was 95.88%, the MBIC (Streptococcus mutans [21]) was 15 µg/mL and the Activity (Staphylococcus aureus [22]) was “Active”. For the same compound, the Ratio (Staphylococcus aureus [23]) was 5, the MBC (Streptococcus mutans [24]) was “inactive” and the Activity (Staphylococcus aureus [25]) was “<=90%”. The Time (Streptococcus mutans [26]) was “>=8 hr”, the Activity (Streptococcus mutans [27]) was “Active” and the MIC (Klebsiella pneumoniae [28]) was “inactive”. The Activity (Staphylococcus aureus [29]) was “Active”, the Activity (Staphylococcus aureus [30]) was “Active” and the Activity (Staphylococcus aureus [31]) was “inactive”. The Activity (Streptococcus mutans [32]) was “Active”, the Activity (Streptococcus mutans [33]) was “Active” and the Activity (Streptococcus mutans [34]) was “Active”.

With `CC1=CCC[C@@H]2[C@@](C)(CCC3=CC(=O)OC3Nc3ccccc3F)[C@H](C)CC[C@@]12C` (mixture of isomers) the MIC (Streptococcus mutans [1]) was 50 µg/mL, the MIC (Staphylococcus aureus [8]) was 45 µg/mL and the Activity (Staphylococcus aureus [15]) was 76.25%. For the same compound, the MIC (Proteus mirabilis [35]) was 125 µg/mL, the Activity (Streptococcus mutans [21]) was 69.05% and the MBIC (Streptococcus mutans [21]) was 45 µg/mL. The MIC (Klebsiella pneumoniae [28]) was “inactive”, the Activity (Klebsiella pneumoniae [36]) was “Active” and the Activity (Proteus mirabilis [37]) was 62.5%. The MBIC (Proteus mirabilis [37]) was 90 µg/mL and the Activity (Proteus mirabilis [38]) was “Active”.

`CC1=CCC[C@@H]2[C@@](C)(CCC3=CC(=O)OC3Nc3ccc(-c4ccc(NC5OC(=O)C=C5CC[C@@]5(C)[C@H](C)CC[C@@]6(C)C(C)=CCC[C@H]56)c(C)c4)cc3C)[C@H](C)CC[C@@]12C` (mixture of isomers) was tested, and the MIC (Streptococcus mutans [1]) was “inactive”.

In the case of `CC1=CCC[C@@H]2[C@@](C)(CCC3=CC(=O)OC3Nc3ccc(F)cc3)[C@H](C)CC[C@@]12C` (mixture of isomers), the MIC (Streptococcus mutans [1]) is reported as “inactive”.

With `C=CC1=C(C(=O)O)N2C(=O)[C@@H](NC(=O)/C(=N\OCC(=O)O)c3csc(N)n3)[C@H]2SC1` [CEFIXIME] the MIC (Streptococcus mutans [1]) was 40 µg/mL (≈ 88.2 µM), the Activity (Klebsiella pneumoniae [39]) was 94.78% and the MBIC (Klebsiella pneumoniae [39]) was 40 µg/mL. For the same compound, the MIC (Staphylococcus aureus [8]) was 82 µg/mL (≈ 181 µM), the Activity (Staphylococcus aureus [15]) was 73.5% and the MBIC (Staphylococcus aureus [15]) was 82 µg/mL. The MIC (Proteus mirabilis [35]) was 40 µg/mL (≈ 88.2 µM), the Activity (Streptococcus mutans [21]) was 96.06% and the MBIC (Streptococcus mutans [21]) was 40 µg/mL. It also gave an MIC (Klebsiella pneumoniae [28]) of 40 µg/mL (≈ 88.2 µM), an Activity (Proteus mirabilis [37]) of 72.6% and an MBIC (Proteus mirabilis [37]) of 40 µg/mL.

Source: ChEMBL document CHEMBL4190260, “Antibiofilm potential of 16-oxo-cleroda-3, 13(14) E-diene-15 oic acid and its five new γ-amino γ-lactone derivatives against methicillin resistant Staphylococcus aureus and Streptococcus mutans” (2017)
